Results published in patent US6794494B1, “Cancerous disease modifying antibodies” (Arius Research, Inc., priority 2003, dated 2004).

How the values were obtained:
HT-29 cells [1] = conditions: human
SW620 cells [2] = conditions: human
DLD-1 cells = conditions: 5 days; four experiments in triplicate; concentration (10A304.7, Anti-Fas, 107.3, MPC-11 20 μg/mL; c225 5 μg/mL; Cycloheximide 100 μM)
Lovo cells = conditions: 5 days; four experiments in triplicate; concentration (10A304.7, Anti-Fas, 107.3, MPC-11 20 μg/mL; c225 5 μg/mL; Cycloheximide 100 μM)
SW1116 cells [3] = conditions: 5 days; four experiments in triplicate; concentration (10A304.7, Anti-Fas, 107.3, MPC-11 20 μg/mL; c225 5 μg/mL; Cycloheximide 100 μM)
BxPC-3 cells = conditions: 5 days; four experiments in triplicate; concentration (10A304.7, Anti-Fas, 107.3, MPC-11 20 μg/mL; c225 5 μg/mL; Cycloheximide 100 μM)
MB-231 cells = conditions: 5 days; four experiments in triplicate; concentration (10A304.7, Anti-Fas, 107.3, MPC-11 20 μg/mL; c225 5 μg/mL; Cycloheximide 100 μM)
MCF-7 cells = conditions: 5 days; four experiments in triplicate; concentration (10A304.7, Anti-Fas, 107.3, MPC-11 20 μg/mL; c225 5 μg/mL; Cycloheximide 100 μM)
PC-3 cells = conditions: 5 days; four experiments in triplicate; concentration (10A304.7, Anti-Fas, 107.3, MPC-11 20 μg/mL; c225 5 μg/mL; Cycloheximide 100 μM)
OVCAR cells = conditions: 5 days; four experiments in triplicate; concentration (10A304.7, Anti-Fas, 107.3, MPC-11 20 μg/mL; c225 5 μg/mL; Cycloheximide 100 μM)
HT-29 cells [4] = experiment: Live/Dead cytotoxicity assay, purified antibody; conditions: 5 days; four experiments in triplicate; concentration (10A304.7, Anti-Fas, 107.3, MPC-11 20 μg/mL; c225 5 μg/mL; Cycloheximide 100 μM)
SW620 cells [5] = experiment: Live/Dead cytotoxicity assay, purified antibody; conditions: 5 days; four experiments in triplicate; concentration (10A304.7, Anti-Fas, 107.3, MPC-11 20 μg/mL; c225 5 μg/mL; Cycloheximide 100 μM)
SW1116 cells [6] = experiment: Live/Dead cytotoxicity assay, hybridoma supernatant; conditions: hybridoma supernatant or controls, 5 days
colorectal cancer = conditions: cited from earlier work

Row | Molecule | Cytotoxicity (%) HT-29 Average (HT-29 cells [1]) [%] | Cytotoxicity (%) SW620 Average (SW620 cells [2]) [%] | Cytotoxicity above background, Colon DLD-1 (DLD-1 cells) | Cytotoxicity above background, Colon Lovo (Lovo cells) | Cytotoxicity above background, Colon SW1116 (SW1116 cells [3]) | Cytotoxicity above background, Pancreas BxPC-3 (BxPC-3 cells) | Cytotoxicity above background, Breast MB-231 (MB-231 cells) | Cytotoxicity above background, Breast MCF-7 (MCF-7 cells) | Cytotoxicity above background, Prostate PC-3 (PC-3 cells) | Cytotoxicity above background, Ovary OVCAR (OVCAR cells) | Cytotoxicity above background, Colon HT-29 (HT-29 cells [4]) | Cytotoxicity above background, Colon SW820 (SW620 cells [5]) | Cytotoxicity (%) SW1116 Average (SW1116 cells [6]) [%] | clinical response, protocols using additional cyclophosphamide (colorectal cancer; 52 patients, with cyclophosphamide) | clinical response, Phase 2 clinical trials (colorectal cancer; over 60 patients)
1 | C[C@@H]1C[C@@H]([C@H](O)CC2CC(=O)NC(=O)C2)C(=O)[C@@H](C)C1 [Cycloheximide] | 23 | −2 | ++++ (4/4 experiments with 15% cytotoxicity above background (++++)) | ++++ (4/4 experiments with 15% cytotoxicity above background (++++)) | ++++ (4/4 experiments with 15% cytotoxicity above background (++++)) | ++++ (4/4 experiments with 15% cytotoxicity above background (++++)) | ++++ (4/4 experiments with 15% cytotoxicity above background (++++)) | ++++ (4/4 experiments with 15% cytotoxicity above background (++++)) | ++++ (4/4 experiments with 15% cytotoxicity above background (++++)) | ++++ (4/4 experiments with 15% cytotoxicity above background (++++)) | ++++ (4/4 experiments with 15% cytotoxicity above background (++++)) | ++++ (4/4 experiments with 15% cytotoxicity above background (++++)) | 17 |  | 
2 | 17-1A: antibody with some specificity for adenocarcinomas, tested in colorectal cancer clinical trials (antibody, chains of the INN, looked up, V domains shown) VH: QVQLQQSGAELVRPGTSVKVSCKASGYAFTNYLIEWVKQRPGQGLEWIGVINPGSGGTNYNEKFKGKATLTADKSSSTAYMQLSSLTSDDSAVYFCARDGPWFAYWGQGTLVTVSA VL: NIVMTQSPKSMSMSVGERVTLTCKASENVVTYVSWYQQKPEQSPKLLIYGASNRYTGVPDRFTGSGSATDFTLTISSVQAEDLADYHCGQGYSYPYTFGGGTKLEIK |  |  |  |  |  |  |  |  |  |  |  |  |  | only one complete response and two minor responses among 52 patients | only one patient having a partial response
